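These data come from cells grown in 96-well plates and exposed to compound for 48 hours at five concentrations. TGI: total growth inhibition.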
Tests used:
Assay in all cases: DTP human tumour cell line panel, 48 h
SF-268 CNS = tested on: SF-268 CNS
OVCAR-4 ovarian = tested on: OVCAR-4 ovarian
U251 CNS = tested on: U251 CNS
UO-31 renal = tested on: UO-31 renal
SK-MEL-28 melanoma = tested on: SK-MEL-28 melanoma
A498 renal = tested on: A498 renal
786-0 renal = tested on: 786-0 renal
HOP-92 NSCLC = tested on: HOP-92 NSCLC
MOLT-4 leukemia = tested on: MOLT-4 leukemia
MDA-MB-435 = tested on: MDA-MB-435
OVCAR-5 ovarian = tested on: OVCAR-5 ovarian
ACHN renal = tested on: ACHN renal
SNB-19 CNS = tested on: SNB-19 CNS
MDA-N = tested on: MDA-N
PC-3 prostate = tested on: PC-3 prostate
SF-539 CNS = tested on: SF-539 CNS
NCI/ADR-RES ovarian = tested on: NCI/ADR-RES ovarian
HCC-2998 colon = tested on: HCC-2998 colon
RXF 393 renal = tested on: RXF 393 renal
SF-295 CNS = tested on: SF-295 CNS
MCF7 breast = tested on: MCF7 breast
SK-OV-3 ovarian = tested on: SK-OV-3 ovarian
EKVX NSCLC = tested on: EKVX NSCLC
SK-MEL-5 melanoma = tested on: SK-MEL-5 melanoma
RPMI-8226 leukemia = tested on: RPMI-8226 leukemia
MALME-3M melanoma = tested on: MALME-3M melanoma
LOX IMVI melanoma = tested on: LOX IMVI melanoma
KM12 colon = tested on: KM12 colon
K-562 leukemia = tested on: K-562 leukemia
HCT-15 colon = tested on: HCT-15 colon
SR leukemia = tested on: SR leukemia
OVCAR-8 ovarian = tested on: OVCAR-8 ovarian
TK-10 renal = tested on: TK-10 renal
BT-549 breast = tested on: BT-549 breast
DU-145 prostate = tested on: DU-145 prostate
UACC-257 melanoma = tested on: UACC-257 melanoma
HOP-62 NSCLC = tested on: HOP-62 NSCLC
IGROV1 ovarian = tested on: IGROV1 ovarian
UACC-62 melanoma = tested on: UACC-62 melanoma
SK-MEL-2 melanoma = tested on: SK-MEL-2 melanoma
M14 melanoma = tested on: M14 melanoma
HCT-116 colon = tested on: HCT-116 colon
CCRF-CEM leukemia = tested on: CCRF-CEM leukemia
COLO 205 colon = tested on: COLO 205 colon
HS 578T breast = tested on: HS 578T breast
SNB-75 CNS = tested on: SNB-75 CNS
A549 NSCLC = tested on: A549 NSCLC
HL-60(TB) leukemia = tested on: HL-60(TB) leukemia
HT29 colon = tested on: HT29 colon
NCI-H460 lung = tested on: NCI-H460 lung
NCI-H226 lung = tested on: NCI-H226 lung
T-47D breast = tested on: T-47D breast
CAKI-1 renal = tested on: CAKI-1 renal
OVCAR-3 ovarian = tested on: OVCAR-3 ovarian
SW-620 colon = tested on: SW-620 colon
NCI-H23 lung = tested on: NCI-H23 lung
SN12C renal = tested on: SN12C renal
MDA-MB-231 breast = tested on: MDA-MB-231 breast
NCI-H522 lung = tested on: NCI-H522 lung

Work on `CCOC(=O)N1CCC2(CC1)CC(=O)N(Nc1ccccc1)C2=O` yielded a TGI (SF-268 CNS) greater than 100 µM, a TGI (OVCAR-4 ovarian) greater than 100 µM and a TGI (U251 CNS) greater than 100 µM. It also gave a TGI (UO-31 renal) greater than 100 µM, a TGI (SK-MEL-28 melanoma) greater than 100 µM and a TGI (A498 renal) greater than 100 µM. The TGI (786-0 renal) was greater than 100 µM, the TGI (HOP-92 NSCLC) was greater than 100 µM and the TGI (MOLT-4 leukemia) was greater than 100 µM. It also gave a TGI (MDA-MB-435) greater than 100 µM, a TGI (OVCAR-5 ovarian) greater than 100 µM and a TGI (ACHN renal) greater than 100 µM. It also gave a TGI (SNB-19 CNS) greater than 100 µM, a TGI (MDA-N) greater than 100 µM and a TGI (PC-3 prostate) greater than 100 µM. The TGI (SF-539 CNS) was greater than 100 µM, the TGI (NCI/ADR-RES ovarian) was greater than 100 µM and the TGI (HCC-2998 colon) was greater than 100 µM. For the same compound, the TGI (RXF 393 renal) was greater than 100 µM, the TGI (SF-295 CNS) was greater than 100 µM and the TGI (MCF7 breast) was greater than 100 µM. The TGI (SK-OV-3 ovarian) was greater than 100 µM, the TGI (EKVX NSCLC) was greater than 100 µM and the TGI (SK-MEL-5 melanoma) was greater than 100 µM. The TGI (RPMI-8226 leukemia) was greater than 100 µM, the TGI (MALME-3M melanoma) was greater than 100 µM and the TGI (LOX IMVI melanoma) was greater than 100 µM. The TGI (KM12 colon) was greater than 100 µM, the TGI (K-562 leukemia) was greater than 100 µM and the TGI (HCT-15 colon) was greater than 100 µM. It also gave a TGI (SR leukemia) greater than 100 µM, a TGI (OVCAR-8 ovarian) greater than 100 µM and a TGI (TK-10 renal) greater than 100 µM. The TGI (BT-549 breast) was greater than 100 µM, the TGI (DU-145 prostate) was greater than 100 µM and the TGI (UACC-257 melanoma) was greater than 100 µM. It also gave a TGI (HOP-62 NSCLC) greater than 100 µM, a TGI (IGROV1 ovarian) greater than 100 µM and a TGI (UACC-62 melanoma) greater than 100 µM. For the same compound, the TGI (SK-MEL-2 melanoma) was greater than 100 µM, the TGI (M14 melanoma) was greater than 100 µM and the TGI (HCT-116 colon) was greater than 100 µM. It also gave a TGI (CCRF-CEM leukemia) greater than 100 µM, a TGI (COLO 205 colon) greater than 100 µM and a TGI (HS 578T breast) greater than 100 µM. It also gave a TGI (SNB-75 CNS) greater than 100 µM, a TGI (A549 NSCLC) greater than 100 µM and a TGI (HL-60(TB) leukemia) greater than 100 µM. The TGI (HT29 colon) was greater than 100 µM, the TGI (NCI-H460 lung) was greater than 100 µM and the TGI (NCI-H226 lung) was greater than 100 µM. For the same compound, the TGI (T-47D breast) was greater than 100 µM, the TGI (CAKI-1 renal) was greater than 100 µM and the TGI (OVCAR-3 ovarian) was greater than 100 µM. For the same compound, the TGI (SW-620 colon) was greater than 100 µM, the TGI (NCI-H23 lung) was greater than 100 µM and the TGI (SN12C renal) was greater than 100 µM. The TGI (MDA-MB-231 breast) was greater than 100 µM.

`O=C(Cn1nnc(-c2ccccc2)n1)N/N=C/c1cn(Cc2ccc(Cl)cc2Cl)c2ccccc12` showed a TGI (SF-268 CNS) greater than 100 µM, a TGI (OVCAR-4 ovarian) greater than 100 µM and a TGI (U251 CNS) greater than 100 µM. It also gave a TGI (UO-31 renal) greater than 100 µM, a TGI (A498 renal) greater than 100 µM and a TGI (786-0 renal) greater than 100 µM. It also gave a TGI (HOP-92 NSCLC) greater than 100 µM, a TGI (MOLT-4 leukemia) greater than 100 µM and a TGI (MDA-MB-435) greater than 100 µM. For the same compound, the TGI (OVCAR-5 ovarian) was greater than 100 µM, the TGI (ACHN renal) was greater than 100 µM and the TGI (SNB-19 CNS) was greater than 100 µM. It also gave a TGI (MDA-N) greater than 100 µM, a TGI (PC-3 prostate) greater than 100 µM and a TGI (SF-539 CNS) greater than 100 µM. The TGI (NCI/ADR-RES ovarian) was greater than 100 µM, the TGI (SF-295 CNS) was greater than 100 µM and the TGI (MCF7 breast) was greater than 100 µM. The TGI (SK-OV-3 ovarian) was greater than 100 µM, the TGI (EKVX NSCLC) was greater than 100 µM and the TGI (SK-MEL-5 melanoma) was greater than 100 µM. The TGI (RPMI-8226 leukemia) was greater than 100 µM, the TGI (LOX IMVI melanoma) was greater than 100 µM and the TGI (KM12 colon) was greater than 100 µM. For the same compound, the TGI (K-562 leukemia) was greater than 100 µM, the TGI (HCT-15 colon) was greater than 100 µM and the TGI (SR leukemia) was greater than 100 µM. It also gave a TGI (OVCAR-8 ovarian) greater than 100 µM, a TGI (TK-10 renal) greater than 100 µM and a TGI (BT-549 breast) greater than 100 µM. The TGI (DU-145 prostate) was greater than 100 µM, the TGI (UACC-257 melanoma) was greater than 100 µM and the TGI (HOP-62 NSCLC) was greater than 100 µM. It also gave a TGI (IGROV1 ovarian) greater than 100 µM, a TGI (UACC-62 melanoma) greater than 100 µM and a TGI (SK-MEL-2 melanoma) greater than 100 µM. The TGI (M14 melanoma) was greater than 100 µM, the TGI (HCT-116 colon) was greater than 100 µM and the TGI (CCRF-CEM leukemia) was greater than 100 µM. The TGI (COLO 205 colon) was greater than 100 µM, the TGI (HS 578T breast) was greater than 100 µM and the TGI (SNB-75 CNS) was greater than 100 µM. For the same compound, the TGI (A549 NSCLC) was greater than 100 µM, the TGI (HL-60(TB) leukemia) was greater than 100 µM and the TGI (HT29 colon) was greater than 100 µM. The TGI (NCI-H460 lung) was greater than 100 µM, the TGI (NCI-H522 lung) was greater than 100 µM and the TGI (T-47D breast) was greater than 100 µM. It also gave a TGI (CAKI-1 renal) greater than 100 µM, a TGI (OVCAR-3 ovarian) greater than 100 µM and a TGI (SW-620 colon) greater than 100 µM. For the same compound, the TGI (NCI-H23 lung) was greater than 100 µM, the TGI (SN12C renal) was greater than 100 µM and the TGI (MDA-MB-231 breast) was greater than 100 µM.

In the case of `CC(C)N(C(=O)C12C3(C(=O)OC(C)(C)C)C4C5(C#N)C3C1(C(=O)OC(C)(C)C)C5C42C(=O)OC(C)(C)C)C(C)C` (configuration not stated), the TGI (SF-268 CNS) is reported as greater than 100 µM, the TGI (OVCAR-4 ovarian) is reported as greater than 100 µM and the TGI (U251 CNS) is reported as greater than 100 µM. The TGI (UO-31 renal) was greater than 100 µM, the TGI (SK-MEL-28 melanoma) was greater than 100 µM and the TGI (A498 renal) was greater than 100 µM. For the same compound, the TGI (786-0 renal) was greater than 100 µM, the TGI (HOP-92 NSCLC) was greater than 100 µM and the TGI (MOLT-4 leukemia) was 40.1 µM. The TGI (MDA-MB-435) was greater than 100 µM, the TGI (OVCAR-5 ovarian) was greater than 100 µM and the TGI (ACHN renal) was greater than 100 µM. For the same compound, the TGI (SNB-19 CNS) was greater than 100 µM, the TGI (MDA-N) was greater than 100 µM and the TGI (PC-3 prostate) was greater than 100 µM. The TGI (SF-539 CNS) was greater than 100 µM, the TGI (NCI/ADR-RES ovarian) was greater than 100 µM and the TGI (HCC-2998 colon) was greater than 100 µM. The TGI (RXF 393 renal) was greater than 100 µM, the TGI (SF-295 CNS) was greater than 100 µM and the TGI (MCF7 breast) was 43.9 µM. For the same compound, the TGI (EKVX NSCLC) was greater than 100 µM, the TGI (SK-MEL-5 melanoma) was greater than 100 µM and the TGI (LOX IMVI melanoma) was 29 µM. It also gave a TGI (KM12 colon) greater than 100 µM, a TGI (K-562 leukemia) greater than 100 µM and a TGI (HCT-15 colon) greater than 100 µM. For the same compound, the TGI (SR leukemia) was 69.6 µM, the TGI (OVCAR-8 ovarian) was greater than 100 µM and the TGI (TK-10 renal) was greater than 100 µM. For the same compound, the TGI (BT-549 breast) was greater than 100 µM, the TGI (DU-145 prostate) was greater than 100 µM and the TGI (UACC-257 melanoma) was greater than 100 µM. For the same compound, the TGI (HOP-62 NSCLC) was greater than 100 µM, the TGI (IGROV1 ovarian) was greater than 100 µM and the TGI (UACC-62 melanoma) was greater than 100 µM. For the same compound, the TGI (SK-MEL-2 melanoma) was greater than 100 µM, the TGI (M14 melanoma) was greater than 100 µM and the TGI (HCT-116 colon) was 73.5 µM. It also gave a TGI (CCRF-CEM leukemia) of 30.9 µM, a TGI (COLO 205 colon) greater than 100 µM and a TGI (HS 578T breast) greater than 100 µM. The TGI (SNB-75 CNS) was 41.8 µM, the TGI (A549 NSCLC) was greater than 100 µM and the TGI (HL-60(TB) leukemia) was greater than 100 µM. The TGI (HT29 colon) was greater than 100 µM, the TGI (NCI-H460 lung) was greater than 100 µM and the TGI (NCI-H522 lung) was greater than 100 µM. The TGI (T-47D breast) was greater than 100 µM, the TGI (CAKI-1 renal) was greater than 100 µM and the TGI (OVCAR-3 ovarian) was greater than 100 µM. The TGI (SW-620 colon) was greater than 100 µM, the TGI (NCI-H23 lung) was greater than 100 µM and the TGI (SN12C renal) was greater than 100 µM. The TGI (MDA-MB-231 breast) was greater than 100 µM.
